US11440913B2, “Aminoimidazopyridazines as kinase inhibitors” (BRISTOL-MYERS SQUIBB COMPANY, priority 2017, dated 2022)
Read-outs that look alike come from different tables or passages of the source.

Legend:
[1] = target: His-GST-TVMV-hRIPK1(1-324) (Homo sapiens (Human), UniProt Q13546); assay: RIPK1 HTRF Binding Assay; conditions: HTRF binding, 1 h at rt; read-out: RIPK1 (IC50)
Procedure: A solution was prepared containing 0.2 nM Anti GST-Tb (Cisbio, 61GSTTLB), 90.6 nM probe and 1 nM His-GST-TVMV-hRIPK1(1-324) in FRET Buffer (20 mM HEPES, 10 mM MgCl2, 0.015% Brij-35, 4 mM DTT, 0.05 mg/mL BSA). Using Formulatrix Tempest, the detection antibody/enzyme/probe solution ([…]) was dispensed into wells of a 1536 plate (Black Low Binding Polystyrene 1536 Plate (Corning, 3724)) containing 10 nL of compounds of interest at appropriate concentration in DMSO. The plate was incubated at rt for 1 h. FRET was measured using the EnVision plate reader (Excitation: 340 nm, Emission: 520 nm/[…]). Total signal (0% inhibition) was calculated from wells containing 10 nL DMSO only.
The coding region of human RIPK1(1-324) flanked by NdeI site at 5′ end and stop codon TGA and XhoI site at 3′ end was codon optimized and gene synthesized at GenScript USA Inc. (Piscataway, N.J.) and subcloned into a modified pFastBacl vector (Invitrogen, Carlsbad, Calif.) with N-terminal His-GST-TVMV tag, to generate His-GST-TVMV-hRIPK1(1-324)-pFB. The fidelity of the synthetic fragment was confirmed by sequencing.

[2] = system: MLKL phosphorylation in HT29-L23 human colorectal adenocarcinoma cells; assay: MLKL Phosphorylation High-Content Assay; assay type: cell-based; conditions: 6 h, necroptosis induced with TNFα, SMAC mimetic and Z-VAD, read-out: pMLKL (IC50)
Procedure: MLKL Phosphorylation High-Content Assay
HT29-L23 human colorectal adenocarcinoma cells were maintained in RPMI 1640 medium containing 10% heat-inactivated FBS, 1% Pennicilin-Streptomycin and 10 mM HEPES. Cells were seeded at 2,000 cells/well in 384 w tissue culture-treated microplates (Greiner #781090-3B) and incubated at 37° C. (5% CO2/95% O2) for two days. On the day of assay, the cells were treated with test compounds at final concentrations of 6.25 to 0.106 μM for 30 min at 37° C. (5% CO2/95% O2). Necroptopsis was induced using a mixture of human TNFα (35 ng/mL) (Peprotech #300-01A), SMAC mimetic (from US 2015/0322111 A1) (700 nM) and Z-VAD (140 nM) (BD pharmingen #51-6936). Following six hours incubation at 37° C. (5% CO2/95% O2), the cells were fixed with 4% formaldedye (ACROS 11969-0010) for 15 min at room temperature and then permeabilized with phoshpate buffered saline (PBS) containing 0.2% Triton-X-100 for 10 min. MLKL phosporylation was detected using anti-MLKL (phospho S358) antibody (Abcam # ab187091) (1:1000 dilution in Blocking Buffer [PBS supplemented with 0.1% BSA]) with overnight incubation at 4° C. After washing three times in PBS, goat anti-rabbit Alexa-488 (1:1000 dilution) (Life Technologies, A11008) and Hoechst 33342 (Life Technologies, H3570) (1:2000 dilution) in Blocking Buffer were added for 1 h at room temperature. Following another three cycles of washes in PBS, the microplates were sealed, and cellular images were acquired in the Cellomics ArrayScan VTI high-content imager equipped with an X1 camera. Fluorescent images were taken using a 10× objective and the 386-23 BGRFRN_BGRFRN and 485-20 BGRFRN_BGRFRN filter sets, for nuclei and MLKL phosphorylation, respectively. The image sets were analyzed using the Compartmental Analysis Bioapplication software (Cellomics). The level of MLKL phosphorylation was quantified as MEAN_CircRingAvgIntenRatio. […] The IC50 value was defined as the concentration of compound that produces 50% of the maximal inhibition. The data were fitted using the 4-parameter logistic equation to calculate the IC50 and Ymax values.

Chain of His-GST-TVMV-hRIPK1(1-324) (Q13546 1-324): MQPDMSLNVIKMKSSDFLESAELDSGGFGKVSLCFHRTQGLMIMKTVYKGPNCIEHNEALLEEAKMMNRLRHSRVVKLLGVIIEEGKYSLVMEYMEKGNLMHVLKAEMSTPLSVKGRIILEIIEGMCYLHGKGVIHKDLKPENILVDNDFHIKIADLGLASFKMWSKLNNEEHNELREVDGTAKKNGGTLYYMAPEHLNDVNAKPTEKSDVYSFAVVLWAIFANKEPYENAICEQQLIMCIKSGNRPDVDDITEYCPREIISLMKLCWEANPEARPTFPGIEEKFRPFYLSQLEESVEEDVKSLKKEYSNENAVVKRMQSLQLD

## CCC(=O)Nc1cn2nc(-c3cnc(OC)c(C(=O)NCc4cc(F)cc(F)c4OCC4CC4)c3)ccc2n1 [Example 4, N-{[2-(cyclopropylmethoxy)-3,5-difluorophenyl]methyl}-2-methoxy-5-{2-propanamidoimidazo[1,2-b]pyridazin-6-yl}pyridine-3-carboxamide]
[1]
  IC50: 2 nM
[2]; Homo sapiens
  IC50: 10 nM

## COc1ncc(-c2ccc3nc(NC(C)=O)cn3n2)cc1C(=O)NCc1cc(OC(F)(F)F)ccc1F [Example 145, 5-{2-acetamidoimidazo[1,2-b]pyridazin-6-yl}-N-{[2-fluoro-5-(trifluoro-methoxy)phenyl](deutero)methyl}-2-methoxypyridine-3-carboxamide]
[1]
  IC50: 5 nM
[2]
  IC50: 27 nM

## CC(=O)Nc1cn2nc(-c3cnc(C)c(C(=O)NCC[C@H](O)c4ccc(Cl)cc4)c3)ccc2n1 [Example 216, N-[(3S)-3-(4-chlorophenyl)-3-hydroxypropyl]-5-{2-acetamidoimidazo[1,2-b]pyridazin-6-yl}-2-methylpyridine-3-carboxamide]
[1]
  IC50: 66 nM
[2]; Homo sapiens
  IC50: 397 nM

## COc1ncc(-c2ccc3nc(NC(C)=O)cn3n2)cc1C(=O)NCc1c(F)cc(F)cc1OCC1CC1 [Example 150, N-{[2-(cyclopropylmethoxy)-4,6-difluorophenyl]methyl}-5-{2-acetamidoimidazo[1,2-b]pyridazin-6-yl}-2-methoxypyridine-3-carboxamide]
[1]
  IC50: 18 nM
[2]; Homo sapiens
  IC50: 24 nM

## COc1ncc(-c2ccc3nc(NC(C)=O)cn3n2)cc1C(=O)NCc1ccccc1S(=O)(=O)C1CC1 [Example 158, N-{[2-(cyclopropanesulfonyl)phenyl]methyl}-5-{2-acetamidoimidazo[1,2-b]pyridazin-6-yl}-2-methoxypyridine-3-carboxamide]
[1]
  IC50: 31 nM
[2]; Homo sapiens
  IC50: 336 nM

## COc1ncc(-c2ccc3nc(NC(C)=O)cn3n2)cc1C(=O)NCc1ccc(F)c(F)c1OC(C)C1CC1 (stereo not shown) [Example 131, N-{[2-(1-cyclopropylethoxy)-3,4-difluorophenyl]methyl}-5-{2-acetamidoimidazo[1,2-b]pyridazin-6-yl}-2-methoxypyridine-3-carboxamide]
[1]
  IC50: 79 nM
[2]
  IC50: 481 nM

## [2H]C([2H])(NC(=O)c1cc(-c2ccc3nc(NC(=O)CO)cn3n2)cnc1C)c1cc(F)cc(F)c1OC1CCOCC1 [Example 184, N-{[3,5-difluoro-2-(oxan-4-yloxy)phenyl](deutero)methyl}-5-[2-(2-hydroxyacetamido)imidazo [1,2-b]pyridazin-6-yl]-2-methylpyridine-3-carboxamide]
[1]
  IC50: 9 nM
[2]; Homo sapiens
  IC50: 177 nM

## CC(=O)Nc1cn2nc(-c3cnc(C(F)(F)F)c(C(=O)NCc4cc(OC(F)(F)F)ccc4F)c3)ccc2n1 [Example 18, 5-{2-acetamidoimidazo[1,2-b]pyridazin-6-yl}-N-{[2-fluoro-5-(trifluoromethoxy)phenyl]methyl}-2-(trifluoromethyl)pyridine-3-carboxamide]
[1]
  IC50: 145 nM
[2]; Homo sapiens
  IC50: 177 nM

## COc1ccc(-c2ccc3nc(NC(C)=O)cn3n2)c(F)c1C(=O)N[C@@H](C)c1cc(OC(F)(F)F)ccc1F [Example 375, 3-{2-acetamidoimidazo [1,2-b]pyridazin-6-yl}-2-fluoro-N-[(1S)-1[2-fluoro-5-(trifluoromethoxy)phenyl]ethyl]-6-methoxybenzamide]
[1]
  IC50: 12 nM
[2]; Homo sapiens
  IC50: 3 nM

## COc1nc(C)c(-c2ccc3nc(NC(C)=O)cn3n2)cc1C(=O)NCc1cc(C(F)(F)F)ccc1F [Example 296, 5-{2-acetamidoimidazo[1,2-b]pyridazin-6-yl}-N-{[2-fluoro-5-(trifluoromethyl)phenyl]methyl}-2-methoxy-6-methylpyridine-3-carboxamide]
[1]
  IC50: 10 nM
[2]; Homo sapiens
  IC50: 20 nM

## [2H]C([2H])([2H])Oc1nc(C)c(-c2ccc3nc(NC(C)=O)cn3n2)cc1C(=O)NCc1cc(F)cc(F)c1OC1CC(C)OC(C)C1 (stereo not shown) [Example 167, N-({2-[(2,6-dimethyloxan-4-yl)oxy]-3,5-difluorophenyl}methyl)-5-{2-acetamidoimidazo[1,2-b]pyridazin-6-yl}-2-(deutero)methoxy-6-methylpyridine-3-carboxamide]
[1]
  IC50: 18 nM
[2]; Homo sapiens
  IC50: 13 nM
